Measured values taken from patent US4395401A, “Renally active dipeptides” (SmithKline Beckman Corporation, priority 1981, dated 1983).

How the values were obtained:
anesthetized dogs [1] = experiment: Secondary testing (ED15); assay type: in vivo, dog
anesthetized dogs [2] = experiment: Infusion to anesthetized dogs, measuring renal blood flow and renal vascular resistance (procedure of U.S. Pat. No. 4,197,297); assay type: in vivo, dog
Source text: Specific results are included in the examples.

[3] = infusion 30 μg/kg/min, anesthetized dog
[4] = infusion at 30 and 300 μg/kg/min
[5] = 300 μg/kg/min, anesthetized dog
[6] = infusion 300 μg/kg/min, anesthetized dog

For `NCCc1ccc(O)c(O)c1` [Dopamine, reference compound], the ED15 (anesthetized dogs [1]) was 3.5 µg/kg.
In the case of `CC(=O)O.COc1ccc(CC(C)(NC(=O)[C@@H]2CCCN2C(=O)CCCc2ccc(O)cc2)C(=O)N[C@@H](CCCNC(=N)N)C(=O)O)cc1OC` (stereo partly drawn) [Example 1, N-4-(4'-hydroxyphenyl)-butyryl-L-prolyl-D,L-α-methyl-3,4-dimethoxyphenylalanyl-L-arginine acetic acid salt], the “decrease of renal vascular resistance” value (anesthetized dogs [2]; [3]) is reported as -21.3, the “increase of renal blood flow” value (anesthetized dogs [2]; [3]) is reported as “+18%” and the ED15 (anesthetized dogs [1]) is reported as 506 µg/kg.
In the case of `COc1ccc(CC(C)(NC(=O)[C@@H]2CCCN2C(=O)CCCc2ccc(O)cc2)C(=O)NCCCN)cc1OC.Cl` (stereo partly drawn) [Example 2, N-4-(4'-hydroxyphenyl)-butyryl-L-prolyl-D,L-α-methyl-3,4-dimethoxyphenylalanine 3-aminopropylamide hydrochloride], the “decrease of renal vascular resistance” value (anesthetized dogs [2]; infusion 3 μg/kg/min) is reported as -11%, the “increase of renal blood flow” value (anesthetized dogs [2]; infusion 3 μg/kg/min) is reported as “+13.5%” and the “renal blood flow (in words)” value (anesthetized dogs [2]; [4]) is reported as “increased renal blood”. For the same molecule, the “renal vascular resistance (in words)” value (anesthetized dogs [2]; [4]) was “decreased renal vascular resistance”.
With `CC(=O)O.CC(Cc1ccc(O)cc1)(NC(=O)[C@@H]1CCCN1C(=O)CCCc1ccc(O)cc1)C(=O)N[C@@H](CCCNC(=N)N)C(=O)O` (stereo partly drawn) [Example 3, N-4-(4'-hydroxyphenyl)-butyryl-L-prolyl-D,L-α-methyltyrosyl-L-arginine acetic acid salt] the “decrease of renal vascular resistance” value (anesthetized dogs [2]; 3 μg/kg/min, anesthetized dog) was -12, the “increase of renal blood flow” value (anesthetized dogs [2]; 3 μg/kg/min, anesthetized dog) was “+8.0” and the “increase of renal blood flow” value (anesthetized dogs [2]; 30 μg/kg/min, anesthetized dog) was “+12.0”. The “decrease of renal vascular resistance” value (anesthetized dogs [2]; [5]) was -11, the “increase of renal blood flow” value (anesthetized dogs [2]; [5]) was “+11.0” and the “increase of renal blood flow after a cumulative dose” value (anesthetized dogs [2]; cumulative dose at 3, 30 and 300 μg/kg/min) was 28%. For the same molecule, the “decrease of renal vascular resistance” value (anesthetized dogs [2]; [3]) was -9.
`CC(Cc1ccc(O)cc1)(NC(=O)[C@@H]1CCCN1C(=O)CCCc1ccc(O)cc1)C(=O)NCCCN.Cl` (stereo partly drawn) [Example 4, N-4-(4'-hydroxyphenylbutyryl)-L-prolyl-D,L-α-methyltyrosine ω-aminopropylamide, hydrochloride] was tested, and the “decrease of renal vascular resistance” value (anesthetized dogs [2]; 3 μg/kg/min, anesthetized dog) was -9.5 and the “increase of renal blood flow” value (anesthetized dogs [2]; 3 μg/kg/min, anesthetized dog) was “+8.5”.
With `CC(Cc1ccccc1)(NC(=O)[C@@H]1CCCN1C(=O)CCCc1ccc(O)cc1)C(=O)NCCCN.Cl` (stereo partly drawn) [Example 5, N-4-(4'-hydroxyphenylbutyryl)-L-prolyl-D,L-α-methylphenylalanine ω-aminopropylamide, hydrochloride] the cumulative drug effect (anesthetized dogs [2]; infused in anesthetized dogs) was “demonstrated a cumulative drug effect”, the “increase of renal blood flow” value (anesthetized dogs [2]; [6]) was “+11.7%” and the “decrease of vascular renal resistance” value (anesthetized dogs [2]; infusion 300 μg/kg/min, anesthetized dogs) was 11.3%.
`CC(=O)O.C[C@@](Cc1ccccc1)(NC(=O)[C@@H]1CCCN1C(=O)CCCc1ccc(O)cc1)C(=O)N[C@@H](CCCNC(=N)N)C(=O)O.O` [Example 6, N-4-(4'-hydroxyphenyl)-butyryl-L-prolyl-D,L-α-methylphenylalanyl-L-arginine 1.5HOAc.1H2 O] was tested, and the “increase of renal blood flow” value (anesthetized dogs [2]; [3]) was “+12%” and the “increase of renal blood flow” value (anesthetized dogs [2]; [6]) was “+11%”.
